# Assay results from PubChem BioAssay AID180 (DTP/NCI, 2004).
# Values joined by “and” are separate entries in the source; they are usually repeats but may differ in a detail not shown here. Identical values can stand only once.
# Test system: BDF1 mice, Adenocarcinoma 755 s.c., tumor weight T/C
# Experiment: NCI In Vivo Anticancer Drug Screen. Data for tumor model Adenocarcinoma 755 (subcutaneous) in B6D2F1 (BDF1) mice
# Settings: endpoint: mean tumor weight, higher = larger tumour
# In short: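 In vivo antitumor screen on a transplantable tumor line. Result equals the measure in compound-treated animals divided by the same measure in vehicle controls.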
# [1] = dose: 50.0 mg/kg/injection, schedule: Q01DX011 (sc), vehicle: steriod suspending solution
# [2] = dose: 60.0 mg/kg/injection, schedule: Q01DX011 (ip), vehicle: carboxymethylcellulose (CMC)
# [3] = dose: 125.0 mg/kg/injection, schedule: Q01DX011 (ip), vehicle: methylcellulose (MC)
# [4] = dose: 250.0 mg/kg/injection, schedule: Q01DX011 (ip), vehicle: methylcellulose (MC)
# [5] = dose: 30.0 mg/kg/injection, schedule: Q01DX011 (ip), vehicle: carboxymethylcellulose (CMC)
structure (smiles),measurement,setting,value
CC(=O)OCC(=O)[C@@]1(O)CC[C@H]2[C@@H]3CCC4=CC(=O)C=C[C@]4(C)[C@@]3(F)[C@@H](O)C[C@@]21C,T/C,"dose: 0.07 mg/kg/injection, schedule: Q01DX011 (sc), vehicle: steriod suspending solution",90 % of control
same,T/C,"dose: 0.14 mg/kg/injection, schedule: Q01DX011 (sc), vehicle: steriod suspending solution",77 % of control
same,T/C,"dose: 0.28 mg/kg/injection, schedule: Q01DX011 (sc), vehicle: steriod suspending solution",41 % of control
same,T/C,"dose: 1.12 mg/kg/injection, schedule: Q01DX011 (sc), vehicle: steriod suspending solution",54 % of control
same,T/C,"dose: 2.25 mg/kg/injection, schedule: Q01DX011 (sc), vehicle: steriod suspending solution",38 % of control
same,T/C,"dose: 4.5 mg/kg/injection, schedule: Q01DX011 (sc), vehicle: steriod suspending solution",26 % of control and 38 % of control
same,T/C,"dose: 9.0 mg/kg/injection, schedule: Q01DX011 (sc), vehicle: steriod suspending solution",21 % of control
same,T/C,"dose: 18.0 mg/kg/injection, schedule: Q01DX011 (sc), vehicle: steriod suspending solution",17 % of control
same,T/C,"dose: 24.0 mg/kg/injection, schedule: Q01DX011 (sc), vehicle: steriod suspending solution",9 % of control and 23 % of control
same,T/C,"dose: 25.0 mg/kg/injection, schedule: Q01DX011 (sc), vehicle: steriod suspending solution",23 % of control and 28 % of control
same,T/C,"dose: 36.0 mg/kg/injection, schedule: Q01DX011 (sc), vehicle: steriod suspending solution",11 % of control
same,T/C,[1],13 % of control and 24 % of control
same,T/C,"dose: 100.0 mg/kg/injection, schedule: Q01DX011 (sc), vehicle: steriod suspending solution",9 % of control and 11 % of control
Nc1nc2ncc(CNc3ccc(C(=O)NC(CCC(=O)O)C(=O)O)cc3)nc2c(=O)[nH]1 (stereo not given),T/C,"dose: 6.95 mg/kg/injection, schedule: Q01DX011 (ip), vehicle: carboxymethylcellulose (CMC)",78 % of control
same,T/C,"dose: 13.9 mg/kg/injection, schedule: Q01DX011 (ip), vehicle: carboxymethylcellulose (CMC)",77 % of control
same,T/C,"dose: 17.38 mg/kg/injection, schedule: Q01DX011 (ip), vehicle: carboxymethylcellulose (CMC)",221 % of control and 79 % of control
same,T/C,"dose: 22.24 mg/kg/injection, schedule: Q01DX011 (ip), vehicle: carboxymethylcellulose (CMC)",63 % of control
same,T/C,"dose: 27.8 mg/kg/injection, schedule: Q01DX011 (ip), vehicle: carboxymethylcellulose (CMC)",52 % of control and 60 % of control and 75 % of control
same,T/C,"dose: 34.75 mg/kg/injection, schedule: Q01DX011 (ip), vehicle: carboxymethylcellulose (CMC)",65 % of control
same,T/C,"dose: 40.0 mg/kg/injection, schedule: Q01DX011 (ip), vehicle: carboxymethylcellulose (CMC)",70 % of control
same,T/C,"dose: 50.0 mg/kg/injection, schedule: Q01DX011 (ip), vehicle: carboxymethylcellulose (CMC)",50 % of control
same,T/C,"dose: 55.6 mg/kg/injection, schedule: Q01DX011 (ip), vehicle: carboxymethylcellulose (CMC)",33 % of control and 55 % of control
same,T/C,[2],27 % of control
same,T/C,"dose: 65.0 mg/kg/injection, schedule: Q01DX011 (ip), vehicle: carboxymethylcellulose (CMC)",68 % of control
CCC(=O)O[C@H]1CC[C@H]2[C@@H]3CCC4=CC(=O)CC[C@]4(C)[C@H]3[C@@H](O)C[C@]12C,T/C,[1],121 % of control
same,T/C,"dose: 200.0 mg/kg/injection, schedule: Q01DX011 (sc), vehicle: steriod suspending solution",101 % of control
Cc1ccc(C(=O)Nc2ccc(S(=O)(=O)O)c3cc(S(=O)(=O)O)cc(S(=O)(=O)O)c23)cc1NC(=O)c1cccc(NC(=O)Nc2cccc(C(=O)Nc3cc(C(=O)Nc4ccc(S(=O)(=O)O)c5cc(S(=O)(=O)O)cc(S(=O)(=O)O)c45)ccc3C)c2)c1 (tested in a mixture with another compound),T/C,"dose: 170.0 mg/kg/injection, schedule: Q01DX011 (ip), vehicle: methylcellulose (MC)",88 % of control and 82 % of control
same,T/C,"dose: 680.0 mg/kg/injection, schedule: Q01DX011 (ip), vehicle: methylcellulose (MC)",98 % of control
COC1C(OC(=O)/C=C/C=C/C=C/C=C/C(=O)O)CCC2(CO2)C1C1(C)OC1CC=C(C)C (stereo not given),T/C,"dose: 2.5 mg/kg/injection, schedule: Q01DX011 (ip), vehicle: other",49 % of control
same,T/C,"dose: 5.0 mg/kg/injection, schedule: Q01DX011 (ip), vehicle: other",61 % of control
same,T/C,"dose: 5.0 mg/kg/injection, schedule: Q01DX011 (ip), vehicle: saline",78 % of control
same,T/C,"dose: 10.0 mg/kg/injection, schedule: Q01DX011 (ip), vehicle: methylcellulose (MC)",38 % of control
same,T/C,"dose: 10.0 mg/kg/injection, schedule: Q01DX011 (ip), vehicle: other",40 % of control
same,T/C,"dose: 10.0 mg/kg/injection, schedule: Q01DX011 (ip), vehicle: saline",94 % of control
same,T/C,"dose: 20.0 mg/kg/injection, schedule: Q01DX011 (ip), vehicle: methylcellulose (MC)",28 % of control
same,T/C,"dose: 20.0 mg/kg/injection, schedule: Q01DX011 (ip), vehicle: other",22 % of control
same,T/C,"dose: 20.0 mg/kg/injection, schedule: Q01DX011 (ip), vehicle: saline",49 % of control
same,T/C,"dose: 40.0 mg/kg/injection, schedule: Q01DX011 (ip), vehicle: methylcellulose (MC)",24 % of control
same,T/C,"dose: 40.0 mg/kg/injection, schedule: Q01DX011 (ip), vehicle: other",18 % of control
same,T/C,"dose: 40.0 mg/kg/injection, schedule: Q01DX011 (ip), vehicle: saline",63 % of control
same,T/C,"dose: 80.0 mg/kg/injection, schedule: Q01DX011 (ip), vehicle: other",26 % of control
same,T/C,"dose: 80.0 mg/kg/injection, schedule: Q01DX011 (ip), vehicle: saline",58 % of control
CSc1ncc(Br)c(Nc2ccc(Br)cc2)n1,T/C,"dose: 15.0 mg/kg/injection, schedule: Q01DX011 (ip), vehicle: methylcellulose (MC)",94 % of control
same,T/C,"dose: 31.0 mg/kg/injection, schedule: Q01DX011 (ip), vehicle: methylcellulose (MC)",103 % of control
same,T/C,"dose: 62.0 mg/kg/injection, schedule: Q01DX011 (ip), vehicle: methylcellulose (MC)",123 % of control
same,T/C,[3],114 % of control
same,T/C,[4],86 % of control
CC(O)CNc1ncnc2c1cnn2C (stereo not given),T/C,"dose: 12.5 mg/kg/injection, schedule: Q01DX011 (ip), vehicle: saline",94 % of control
same,T/C,"dose: 25.0 mg/kg/injection, schedule: Q01DX011 (ip), vehicle: saline",30 % of control
same,T/C,"dose: 50.0 mg/kg/injection, schedule: Q01DX011 (ip), vehicle: saline",10 % of control
Nc1ccc2cc(S(=O)(=O)O)cc(O)c2c1N=Nc1ccc(NC(=O)c2ccc(C(=O)Nc3ccc(N=Nc4c(N)ccc5cc(S(=O)(=O)O)cc(O)c45)c(S(=O)(=O)O)c3)cc2)cc1S(=O)(=O)O,T/C,"dose: 3.0 mg/kg/injection, schedule: Q01DX011 (ip), vehicle: carboxymethylcellulose (CMC)",100 % of control
same,T/C,"dose: 7.0 mg/kg/injection, schedule: Q01DX011 (ip), vehicle: carboxymethylcellulose (CMC)",45 % of control
same,T/C,"dose: 15.0 mg/kg/injection, schedule: Q01DX011 (ip), vehicle: carboxymethylcellulose (CMC)",56 % of control
same,T/C,[5],48 % of control
Nc1ncnc2c1nc(Br)n2C1CC(O)C(CO)O1 (stereo not given),T/C,[5],89 % of control
same,T/C,[2],89 % of control
same,T/C,"dose: 120.0 mg/kg/injection, schedule: Q01DX011 (ip), vehicle: carboxymethylcellulose (CMC)",75 % of control
same,T/C,"dose: 240.0 mg/kg/injection, schedule: Q01DX011 (ip), vehicle: carboxymethylcellulose (CMC)",123 % of control
O=C(O)CCC(=O)CCl,T/C,"dose: 34.0 mg/kg/injection, schedule: Q01DX011 (ip), vehicle: methylcellulose (MC)",46 % of control
CCCCS(=O)(=O)OCCCCOS(=O)(=O)CCCC,T/C,"dose: 45.0 mg/kg/injection, schedule: Q01DX011 (ip), vehicle: carboxymethylcellulose (CMC)",108 % of control
same,T/C,"dose: 90.0 mg/kg/injection, schedule: Q01DX011 (ip), vehicle: carboxymethylcellulose (CMC)",51 % of control
same,T/C,"dose: 180.0 mg/kg/injection, schedule: Q01DX011 (ip), vehicle: carboxymethylcellulose (CMC)",41 % of control
same,T/C,"dose: 360.0 mg/kg/injection, schedule: Q01DX011 (ip), vehicle: carboxymethylcellulose (CMC)",16 % of control
O=S(=O)(F)c1ncnc2nc[nH]c12,T/C,"dose: 3.13 mg/kg/injection, schedule: Q01DX011 (ip), vehicle: methylcellulose (MC)",75 % of control
same,T/C,"dose: 6.25 mg/kg/injection, schedule: Q01DX011 (ip), vehicle: methylcellulose (MC)",113 % of control
same,T/C,"dose: 12.5 mg/kg/injection, schedule: Q01DX011 (ip), vehicle: methylcellulose (MC)",72 % of control
C=C(Br)CN(CC)CCO,T/C,"dose: 50.0 mg/kg/injection, schedule: Q01DX011 (ip), vehicle: other",66 % of control
C=CC1CN2CCC1CC2C(O)c1ccnc2ccc(OC)cc12 (stereo not given),T/C,"dose: 28.96 mg/kg/injection, schedule: Q01DX011 (ip), vehicle: carboxymethylcellulose (CMC)",109 % of control
same,T/C,"dose: 57.93 mg/kg/injection, schedule: Q01DX011 (ip), vehicle: carboxymethylcellulose (CMC)",121 % of control
same,T/C,"dose: 92.68 mg/kg/injection, schedule: Q01DX011 (ip), vehicle: carboxymethylcellulose (CMC)",70 % of control
same,T/C,"dose: 115.85 mg/kg/injection, schedule: Q01DX011 (ip), vehicle: carboxymethylcellulose (CMC)",76 % of control
same,T/C,[3],82 % of control
same,T/C,"dose: 154.46 mg/kg/injection, schedule: Q01DX011 (ip), vehicle: carboxymethylcellulose (CMC)",86 % of control
same,T/C,"dose: 231.7 mg/kg/injection, schedule: Q01DX011 (ip), vehicle: carboxymethylcellulose (CMC)",72 % of control
same,T/C,[4],91 % of control
